These results are taken from paper PMC8968852, “A New Spectral Shift-Based Method to Characterize Molecular Interactions” (Assay and Drug Development Technologies, 2022).

Data set [1] deals with T1, Carbonic Anhydrase II from bovine erythrocytes (bCA-II) (Bos taurus, UniProt P00921).
T1 construct: Carbonic Anhydrase II from bovine erythrocytes; purchased Sigma Aldrich C2522; host or cells: bovine erythrocytes
Briefly: biochemical. Format: binding.
Description: NanoTemper Technologies GmbH) using the Monolith X instrument equipped with dual-emission detection optics (NanoTemper Technologies GmbH). The required volume per data point was 10 μL. Environment-sensitive near-infrared dyes with an emission maximum at around 660 nm (e.g., RED 2nd Generation dyes, NanoTemper Technologies GmbH, or Cy5) were used as fluorescent reporters. […] NanoTemper Technologies GmbH). […] A threefold molar excess of dye was added to the protein, followed by incubation for 30 min at room temperature in the dark. Unreacted dye was removed using the B-Column of the labeling kit. […] Any further dilution steps were carried out in assay buffer supplemented with 4% DMSO. […] After 5 min of incubation, samples were loaded into capillaries and placed into the device. Spectral shift measurements were performed at 25°C. […] In this model, the fraction bound f(cligand) at a given ligand concentration cligand in equilibrium is given as (1)

The target of data set [2] is bCA-II. Conditions: literature ITC; cited from earlier work.
For data set [3], the target named is bCA-II. To be noted: literature SPR; cited from earlier work.
The subject of data set [4] is Cy5-labeled 13-mer (5′ Cy5 TTT GGA CTT CAG G 3′). Briefly: Spectral shift DNA hybridization and van't Hoff analysis. Format: binding. As for the experimental part:
Chemically synthesized DNA oligonucleotides were obtained from Metabion GmbH (Planegg, Germany). A Cy5-labeled 13-mer including a short poly-T spacer in front of a 10 base-long recognition sequence (sequence 5′ Cy5 TTT GGA CTT CAG G 3′) was designed as target and a complementary 10-mer (sequence 3′ CCT GAA GTC C 5′) as ligand. All other chemicals and reagents used in this study were of the highest available analytic grade.
All dual-emission spectral shift measurements in this work were performed in coated capillaries (cat# MO-K025; NanoTemper Technologies GmbH) using the Monolith X instrument equipped with dual-emission detection optics (NanoTemper Technologies GmbH). The required volume per data point was 10 μL. Environment-sensitive near-infrared dyes with an emission maximum at around 660 nm (e.g., RED 2nd Generation dyes, NanoTemper Technologies GmbH, or Cy5) were used as fluorescent reporters. For each ratiometric reading, the fluorescence was recorded simultaneously at 650 and 670 nm for 5 s (Table 1).
Lyophilized DNA oligonucleotides were resuspended in ddH2O to a concentration of 100 μM. Assay buffer (20 mM sodium phosphate buffer, pH 7.2, 100 mM NaCl, 0.05% TWEEN® 20) was prepared as twofold stock. Cy5-labeled 13-mer was further diluted in twofold assay buffer. Serial dilution of 10-mer was performed in ddH2O. The highest final concentration of 10-mer in the 16-point dilution series was 2 μM and the final concentration of Cy5-labeled 13-mer was 2.5 nM with 20 μL in each sample. For ratiometric fluorescence analysis, the device was adjusted to the desired temperature and samples were incubated for 5 min before starting the measurement. Measurements were performed at 23°C to 37°C in 2°C increments and then repeated in reverse order. Capillaries were sealed with Capillary Sealing Paste (cat# PR-P001; NanoTemper Technologies GmbH) to prevent evaporation.
Ratios of the fluorescence intensities at 670 and 650 nm were calculated automatically within the MO.Control software (NanoTemper Technologies GmbH). For Kd determination, dose–response curves were fitted with a binding model that describes a molecular interaction with a 1:1 stoichiometry according to the law of mass action. In this model, the fraction bound f(cligand) at a given ligand concentration cligand in equilibrium is given as (1) fcligand=cligand+ctarget+Kd−cligand+ctarget+Kd^2−4⋅cligand⋅ctarget/2ctarget
Van't Hoff plots were prepared by plotting the logarithm of the dissociation constant, ln Kd, over the inverse temperature, 1/T. A linear regression was then used to calculate thermodynamic parameters according to (5) ΔH=R⋅slope

In another data set the test system is GLUT1. To be noted: reported IC50 from cellular assays; cited from earlier work.
Where [5] appears, read: van't Hoff analysis, 23°C to 37°C.

Like-named read-outs stand apart in the source and are kept apart here.

T1 sequence (P00921 whole entry): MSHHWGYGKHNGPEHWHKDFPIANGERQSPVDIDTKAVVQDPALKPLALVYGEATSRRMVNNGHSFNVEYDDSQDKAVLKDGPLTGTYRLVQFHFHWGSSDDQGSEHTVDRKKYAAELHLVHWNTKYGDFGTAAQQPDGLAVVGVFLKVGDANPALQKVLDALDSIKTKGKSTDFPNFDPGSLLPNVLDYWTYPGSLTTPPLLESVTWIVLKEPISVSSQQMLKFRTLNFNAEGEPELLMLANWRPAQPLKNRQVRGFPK

Turning to `NS(=O)(=O)c1ccccc1` [Benzenesulfonamide, benzenesulfonamide], the Kd is 502 ± 67 nM in data set [1], 839 nM at bCA-II [2] and 848 nM on bCA-II [3]. Further, in data set [1] (final value, without bound inhibitor 0.884), the “670 nm/650 nm ratio of labeled bCA-II upon inhibitor binding” value worked out at 0.890.
For the compound “3′ CCT GAA GTC C 5′ (DNA CCTGAAGTCC; chemistry not fully specified; listed 3' to 5') [10-mer, chemically synthesized DNA 10-mer complementary to the Cy5-labeled 13-mer target]”, the equilibrium dissociation constant (Kd) in data set [4] (23 °C) came to 1.77 ± 0.06 nM; in data set [4] (25 °C), 3.35 ± 0.11 nM; in data set [4] (27 °C), 6.52 ± 0.17 nM; in data set [4] (29 °C) it was 12.8 ± 0.3 nM; in data set [4] (31 °C), 25.4 ± 0.4 nM; in data set [4] (33 °C), 50.4 ± 0.7 nM. The Kd came to 102 ± 2 nM in data set [4] (35 °C) and 198 ± 4 nM in data set [4] (37 °C). Further, the “entropy ΔS” value in data set [4] (setting [5]) was −168.5 cal/mol/K. The “van't Hoff enthalpy ΔH” value in data set [4] (setting [5]) was -61.8 kcal/mol.
As for `Cc1c(NC(=O)c2cc(C(N)=O)nc3cc(F)ccc23)c(C(F)(F)F)nn1Cc1ccc(C#N)cc1` [BAY-876], in the data set on GLUT1, the IC50 was […].

For orientation: Kd means the constant that tells how readily two partners part at equilibrium. The IC50 is the concentration needed to halve the response being measured.
